Residues, ends and D or L forms follow the SMILES beside them.
How the values were obtained:
[1] = Solubility in water, ethanol and organic solvents; format: physicochemical
[2] = relative to sucrose; cited from earlier work
[3] = under some pH conditions, compared with aspartame; cited from earlier work

SMILES	solubility in organic solvents ([1]; compared with aspartame)	solubility in ethanol [1]	solubility in water ([1]; water)	sweetening potency [2]	stability [3]
COC(=O)[C@H](Cc1ccccc1)NC(=O)[C@H](CC(=O)O)NCCC(C)(C)C [N-[N-(3,3-dimethylbutyl)-L-α-aspartyl]-L-phenylalanine 1-methyl ester]	much higher solubility in organic solvents than aspartame	greater than 100 g/100 ml	about 1%	about 8,000 times	higher stability than aspartame
COC(=O)[C@H](Cc1ccccc1)NC(=O)[C@@H](N)CC(=O)O [aspartame, reference compound] (H-Asp-Phe-OMe)	–	less than 0.1%	–	–	–
